Laboratory results published in PMC11499995 (Communications Biology, 2024).

Target: T1, mNeonGreen (Branchiostoma lanceolatum, UniProt A0A1S4NYF2, C173I/S175A/W191I)
T1 sequence (A0A1S4NYF2 25-260 C173I/S175A/W191I): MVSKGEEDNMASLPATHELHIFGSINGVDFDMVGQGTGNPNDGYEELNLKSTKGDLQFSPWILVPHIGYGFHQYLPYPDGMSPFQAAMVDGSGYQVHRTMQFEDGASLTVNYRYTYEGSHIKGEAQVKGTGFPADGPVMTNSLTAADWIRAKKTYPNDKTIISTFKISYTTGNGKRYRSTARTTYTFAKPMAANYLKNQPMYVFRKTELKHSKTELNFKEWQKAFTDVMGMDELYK
Test: fluorescence quenching titration, purified protein
Format: binding

Kd: 33 ± 3 mM
Structure (SMILES): O=S(=O)(O)O [sulfate]
